{"source": "patent US11998566B1", "about": "“Method of synthesizing a silver nanoparticle composition using an extract of Salsola tetrandra” (KING FAISAL UNIVERSITY, priority 2023, dated 2024)", "key": {"A. fumigatus [1]": {"test_system": "A. fumigatus", "experiment": "time kill assay", "type": "cell-based, Aspergillus fumigatus", "conditions": "50 μg/mL; exposure for 24 hours; FIG. 1", "protocol": "FIG. 1 is a graph showing time-kill curves of A. fumigatus following exposure to ST-AgNPs and amphotericin B for 24 hours (values are expressed as means±SD)\n(§1) Several preliminary in vitro experiments were performed to confirm the potent antifungal potential of the green biosynthesized silver nanoparticles (ST-AgNPs) against A. fumigatus. […] Additionally, the inhibitory effect of the antifungals AMB and ST-AgNPs was also examined using light microscopy (FIGS. 2A-2C)."}, "A. fumigatus [2]": {"test_system": "A. fumigatus", "experiment": "light microscopy of mycelial growth / germination", "type": "cell-based, Aspergillus fumigatus", "conditions": "FIG. 2C", "protocol": "FIGS. 2A-2C show differences in the mycelial growth of A. fumigatus in 2A) control 2B) following exposure to ST-AgNPs and 2C) following exposure to amphotericin B. (conventional antifungal agent).\nas §1"}}}
{"smiles": "C[C@@H]1[C@H](O)[C@@H](C)/C=C/C=C/C=C/C=C/C=C/C=C/C=C/[C@H](O[C@@H]2O[C@H](C)[C@@H](O)[C@H](N)[C@@H]2O)C[C@@H]2O[C@](O)(C[C@@H](O)C[C@@H](O)[C@H](O)CC[C@@H](O)C[C@@H](O)CC(=O)O[C@H]1C)C[C@H](O)[C@H]2C(=O)O", "note": "[amphotericin B]", "values": [{"measurement": "action on the growth of Aspergillus cells (time kill assay)", "setting": "A. fumigatus [1]", "result": "fungistatic action"}, {"measurement": "mycelial growth", "setting": "A. fumigatus [2]", "result": "substantially reduced"}]}
